Tests used:
[1] = biological target: T1, Nitric oxide synthase, inducible (Homo sapiens, UniProt P35228); assay: Compound was tested for inhibitory activity against inducible nitric oxide synthase
[2] = biological target: Nitric oxide synthase 1 (Homo sapiens, UniProt P29475); assay: Compound was tested for inhibitory activity against neuronal nitric oxide synthase
[3] = biological target: T1, Nitric oxide synthase, inducible; assay: Compound was tested for inhibitory activity against inducible nitric oxide synthase using L-arginine as substrate

T1 sequence (P35228 whole entry): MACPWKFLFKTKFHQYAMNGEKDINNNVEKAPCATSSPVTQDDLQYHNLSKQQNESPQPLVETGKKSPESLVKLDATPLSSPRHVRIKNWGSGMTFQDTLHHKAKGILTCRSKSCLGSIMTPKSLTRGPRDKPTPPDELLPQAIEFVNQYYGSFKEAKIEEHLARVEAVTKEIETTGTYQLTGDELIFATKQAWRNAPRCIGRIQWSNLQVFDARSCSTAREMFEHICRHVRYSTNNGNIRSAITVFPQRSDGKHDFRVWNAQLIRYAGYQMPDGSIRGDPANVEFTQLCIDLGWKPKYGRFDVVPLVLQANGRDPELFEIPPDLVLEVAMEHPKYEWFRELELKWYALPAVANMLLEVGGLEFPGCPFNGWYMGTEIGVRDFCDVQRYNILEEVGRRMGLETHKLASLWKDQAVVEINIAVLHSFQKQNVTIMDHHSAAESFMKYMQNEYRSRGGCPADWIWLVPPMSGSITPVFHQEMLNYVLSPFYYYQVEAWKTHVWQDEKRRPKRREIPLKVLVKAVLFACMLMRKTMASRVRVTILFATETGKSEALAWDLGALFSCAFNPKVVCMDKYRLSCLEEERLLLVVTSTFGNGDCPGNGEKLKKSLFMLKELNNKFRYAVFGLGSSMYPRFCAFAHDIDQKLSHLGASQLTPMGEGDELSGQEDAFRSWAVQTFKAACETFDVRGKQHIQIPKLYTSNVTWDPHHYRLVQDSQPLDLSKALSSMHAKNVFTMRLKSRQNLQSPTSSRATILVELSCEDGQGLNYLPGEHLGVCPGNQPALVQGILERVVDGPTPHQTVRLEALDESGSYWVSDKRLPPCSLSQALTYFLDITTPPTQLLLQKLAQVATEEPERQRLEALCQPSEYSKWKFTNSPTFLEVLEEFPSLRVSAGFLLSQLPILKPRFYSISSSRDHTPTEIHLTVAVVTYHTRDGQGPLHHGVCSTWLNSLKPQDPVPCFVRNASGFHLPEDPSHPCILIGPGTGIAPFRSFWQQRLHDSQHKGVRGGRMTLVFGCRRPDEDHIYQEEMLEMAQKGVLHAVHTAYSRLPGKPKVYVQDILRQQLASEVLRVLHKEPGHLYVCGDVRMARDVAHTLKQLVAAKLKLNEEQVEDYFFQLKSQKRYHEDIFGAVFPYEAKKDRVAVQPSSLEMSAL
Sequence of Nitric oxide synthase 1 (P29475 whole entry): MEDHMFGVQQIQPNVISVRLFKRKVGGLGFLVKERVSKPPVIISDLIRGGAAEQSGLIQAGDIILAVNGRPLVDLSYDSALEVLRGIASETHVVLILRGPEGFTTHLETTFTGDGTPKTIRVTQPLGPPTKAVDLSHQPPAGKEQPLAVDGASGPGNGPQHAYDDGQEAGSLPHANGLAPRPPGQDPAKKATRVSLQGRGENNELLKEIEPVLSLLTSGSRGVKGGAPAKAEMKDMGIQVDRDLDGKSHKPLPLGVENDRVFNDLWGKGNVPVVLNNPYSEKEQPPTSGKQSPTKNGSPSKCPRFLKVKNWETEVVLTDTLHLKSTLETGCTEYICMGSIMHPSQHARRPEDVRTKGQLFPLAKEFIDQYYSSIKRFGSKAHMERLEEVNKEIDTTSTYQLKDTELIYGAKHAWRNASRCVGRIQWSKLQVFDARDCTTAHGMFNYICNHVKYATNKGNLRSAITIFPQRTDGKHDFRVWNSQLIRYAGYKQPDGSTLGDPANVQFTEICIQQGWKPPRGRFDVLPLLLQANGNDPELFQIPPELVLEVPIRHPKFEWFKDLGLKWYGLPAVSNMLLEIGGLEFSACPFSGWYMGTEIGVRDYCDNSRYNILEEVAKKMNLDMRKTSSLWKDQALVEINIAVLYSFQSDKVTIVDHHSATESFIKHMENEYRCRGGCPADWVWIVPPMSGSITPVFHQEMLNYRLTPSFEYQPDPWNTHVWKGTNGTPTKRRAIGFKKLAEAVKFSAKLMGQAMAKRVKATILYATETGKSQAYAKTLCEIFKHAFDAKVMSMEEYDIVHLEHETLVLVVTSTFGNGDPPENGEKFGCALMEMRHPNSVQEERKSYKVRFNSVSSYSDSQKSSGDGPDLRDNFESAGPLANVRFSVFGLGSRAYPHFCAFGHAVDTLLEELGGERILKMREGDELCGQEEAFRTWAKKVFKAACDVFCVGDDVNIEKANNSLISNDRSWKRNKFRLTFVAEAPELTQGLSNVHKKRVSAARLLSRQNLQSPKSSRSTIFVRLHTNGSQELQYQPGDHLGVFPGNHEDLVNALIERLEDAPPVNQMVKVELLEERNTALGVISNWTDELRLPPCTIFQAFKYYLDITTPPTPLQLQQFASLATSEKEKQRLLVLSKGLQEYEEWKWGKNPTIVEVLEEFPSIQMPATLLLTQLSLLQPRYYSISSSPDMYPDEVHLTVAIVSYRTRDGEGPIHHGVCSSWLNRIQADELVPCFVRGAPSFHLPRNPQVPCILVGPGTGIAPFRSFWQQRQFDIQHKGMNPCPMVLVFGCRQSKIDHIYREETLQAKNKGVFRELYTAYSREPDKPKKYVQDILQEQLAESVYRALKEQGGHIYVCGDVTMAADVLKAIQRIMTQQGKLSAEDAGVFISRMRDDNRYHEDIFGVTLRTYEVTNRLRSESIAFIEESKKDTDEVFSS

| SMILES | IC50 [1] | IC50 [2] | Ks [3] |
| --- | --- | --- | --- |
| NC(N)=NCCC[C@H](N)B(O)O | 50 µM | 300 µM | 200 µM |
| CC(=O)N[C@@H](CCCN=C(N)N)B(O)O | > 500 µM | > 500 µM |  |

From ChEMBL document CHEMBL1130584, “Synthesis of boronic acid analogs of L-arginine as alternate substrates or inhibitors of nitric oxide synthase” (Bioorg Med Chem Lett, 1998)
